According to ChEMBL document CHEMBL3091361, “Synthesis, structure elucidation and in vitro anticancer activities of novel derivatives of diethyl (2E)-2-[(2E)-(1-arylimidazolidin-2-ylidene)hydrazono]succinate and ethyl (4-oxo-8-aryl-4,6,7,8-tetrahydroimidazo[2,1-c][1,2,4]triazin-3-yl)acetate” (Bioorg Med Chem, 2013):

Assays:
[1] = Cytotoxicity against human MM1R cells at 50 ug/ml after 24 hrs by BrdU incorporation assay relative to control; format: functional; conditions: MM.1R, read-out: GI
T47D [2] = test: Cytotoxicity against human T47D cells at 50 ug/ml after 72 hrs by BrdU incorporation assay relative to control; format: functional; conditions: read-out: GI
HeLa [3] = test: Cytotoxicity against human HeLa cells at 50 ug/ml after 24 hrs by BrdU incorporation assay relative to control; format: functional; conditions: read-out: GI
[4] = Cytotoxicity against human MM1R cells at 50 ug/ml after 72 hrs by BrdU incorporation assay relative to control; format: functional; conditions: MM.1R, read-out: GI
[5] = Cytotoxicity against human HSF cells at 50 ug/ml after 72 hrs by BrdU incorporation assay relative to control; format: cell-based; conditions: read-out: GI
[6] = Cytotoxicity against human HSF cells at 50 ug/ml after 48 hrs by BrdU incorporation assay relative to control; format: cell-based; conditions: read-out: GI
[7] = Cytotoxicity against human MM1S cells at 50 ug/ml after 72 hrs by BrdU incorporation assay relative to control; format: functional; conditions: MM1.S, read-out: GI
[8] = Cytotoxicity against human MM1S cells at 50 ug/ml after 24 hrs by BrdU incorporation assay relative to control; format: functional; conditions: MM1.S, read-out: GI
HeLa [9] = test: Cytotoxicity against human HeLa cells at 50 ug/ml after 72 hrs by BrdU incorporation assay relative to control; format: functional; conditions: read-out: GI
[10] = Cytotoxicity against human MM1S cells at 50 ug/ml after 48 hrs by BrdU incorporation assay relative to control; format: functional; conditions: MM1.S, read-out: GI
[11] = Cytotoxicity against human HSF cells at 50 ug/ml after 24 hrs by BrdU incorporation assay relative to control; format: cell-based; conditions: read-out: GI
T47D [12] = test: Cytotoxicity against human T47D cells at 50 ug/ml after 48 hrs by BrdU incorporation assay relative to control; format: functional; conditions: read-out: GI
[13] = Cytotoxicity against human MM1R cells at 50 ug/ml after 48 hrs by BrdU incorporation assay relative to control; format: functional; conditions: MM.1R, read-out: GI
HeLa [14] = test: Cytotoxicity against human HeLa cells at 50 ug/ml after 48 hrs by BrdU incorporation assay relative to control; format: functional; conditions: read-out: GI
T47D [15] = test: Cytotoxicity against human T47D cells at 50 ug/ml after 24 hrs by BrdU incorporation assay relative to control; format: functional; conditions: read-out: GI
HeLa [16] = test: Induction of necrosis in human HeLa cells at 50 ug/ml after 24 hrs by propidium iodide/Hoechst 33342 staining-based confocal microscopy (reference value: 5%); format: functional
T47D [17] = test: Induction of apoptosis in human T47D cells at 50 ug/ml after 48 hrs by propidium iodide/Hoechst 33342 staining-based confocal microscopy (reference value: 2%); format: functional
[18] = Induction of necrosis in human HSF cells at 50 ug/ml after 24 hrs by propidium iodide/Hoechst 33342 staining-based confocal microscopy (reference value: 2%); format: cell-based
HeLa [19] = test: Induction of necrosis in human HeLa cells at 50 ug/ml after 48 hrs by propidium iodide/Hoechst 33342 staining-based confocal microscopy (reference value: 10%); format: functional
T47D [20] = test: Induction of necrosis in human T47D cells at 50 ug/ml after 72 hrs by propidium iodide/Hoechst 33342 staining-based confocal microscopy (reference value: 10%); format: functional
[21] = Induction of necrosis in human HSF cells at 50 ug/ml after 72 hrs by propidium iodide/Hoechst 33342 staining-based confocal microscopy (reference value: 5%); format: cell-based
HeLa [22] = test: Induction of apoptosis in human HeLa cells at 50 ug/ml after 48 hrs by propidium iodide/Hoechst 33342 staining-based confocal microscopy (reference value: 5%); format: functional
[23] = Induction of apoptosis in human HSF cells at 50 ug/ml after 24 hrs by propidium iodide/Hoechst 33342 staining-based confocal microscopy (reference value: 2%); format: cell-based
HeLa [24] = test: Induction of apoptosis in human HeLa cells at 50 ug/ml after 72 hrs by propidium iodide/Hoechst 33342 staining-based confocal microscopy (reference value: 5%); format: functional
T47D [25] = test: Induction of apoptosis in human T47D cells at 50 ug/ml after 24 hrs by propidium iodide/Hoechst 33342 staining-based confocal microscopy (reference value: 2%); format: functional
T47D [26] = test: Induction of necrosis in human T47D cells at 50 ug/ml after 24 hrs by propidium iodide/Hoechst 33342 staining-based confocal microscopy (reference value: 5%); format: functional
[27] = Induction of apoptosis in human HSF cells at 50 ug/ml after 48 hrs by propidium iodide/Hoechst 33342 staining-based confocal microscopy (reference value: 5%); format: cell-based
HeLa [28] = test: Induction of necrosis in human HeLa cells at 50 ug/ml after 72 hrs by propidium iodide/Hoechst 33342 staining-based confocal microscopy (reference value: 10%); format: functional
HeLa [29] = test: Induction of apoptosis in human HeLa cells at 50 ug/ml after 24 hrs by propidium iodide/Hoechst 33342 staining-based confocal microscopy (reference value: 2%); format: functional
T47D [30] = test: Induction of apoptosis in human T47D cells at 50 ug/ml after 72 hrs by propidium iodide/Hoechst 33342 staining-based confocal microscopy (reference value: 5%); format: functional
T47D [31] = test: Induction of necrosis in human T47D cells at 50 ug/ml after 48 hrs by propidium iodide/Hoechst 33342 staining-based confocal microscopy (reference value: 8%); format: functional
[32] = Induction of necrosis in human HSF cells at 50 ug/ml after 48 hrs by propidium iodide/Hoechst 33342 staining-based confocal microscopy (reference value: 4%); format: cell-based
[33] = Induction of apoptosis in human HSF cells at 50 ug/ml after 72 hrs by propidium iodide/Hoechst 33342 staining-based confocal microscopy (reference value: 5%); format: cell-based
[34] = Selectivity ratio for human RPMI8226 cells over human HSF cells; format: ADME, cell-based, RPMI-8226; conditions: RPMI8226 cells versus HSF cells
[35] = Toxicity in ip dosed albino-Swiss mouse; format: organism-based; conditions: in vivo

Structure (SMILES): CCOC(=O)Cc1nnc2n(c1=O)CCN2c1ccc(C)cc1
- inhibition of growth at 50 µg/mL [1]: 60%
- inhibition of growth at 50 µg/mL (T47D [2]): 80%
- inhibition of growth at 50 µg/mL (HeLa [3]): 20%
- inhibition of growth at 50 µg/mL [4]: 75%
- inhibition at 72 h, 50 ug/ml [5]: 80%
- inhibition at 48 h, 50 ug/ml [6]: 75%
- inhibition of growth at 50 µg/mL [7]: 70%
- inhibition of growth at 50 µg/mL [8]: 50%
- inhibition of growth at 50 µg/mL (HeLa [9]): 70%
- inhibition of growth at 50 µg/mL [10]: 60%
- inhibition at 24 h, 50 ug/ml [11]: 50%
- inhibition of growth at 50 µg/mL (T47D [12]): 75%
- inhibition of growth at 50 µg/mL [13]: 70%
- inhibition of growth at 50 µg/mL (HeLa [14]): 70%
- inhibition of growth at 50 µg/mL (T47D [15]): 25%

Structure (SMILES): CCOC(=O)Cc1nnc2n(c1=O)CCN2c1ccccc1OC
- inhibition of growth at 50 µg/mL [1]: 75%
- inhibition of growth at 50 µg/mL (T47D [2]): 40%
- inhibition of growth at 50 µg/mL (HeLa [3]): 10%
- inhibition of growth at 50 µg/mL [4]: 95%
- inhibition at 72 h, 50 ug/ml [5]: 80%
- inhibition at 48 h, 50 ug/ml [6]: 80%
- inhibition of growth at 50 µg/mL [7]: 85%
- inhibition of growth at 50 µg/mL [8]: 45%
- inhibition of growth at 50 µg/mL (HeLa [9]): 50%
- inhibition of growth at 50 µg/mL [10]: 55%
- inhibition at 24 h, 50 ug/ml [11]: 50%
- inhibition of growth at 50 µg/mL (T47D [12]): 35%
- inhibition of growth at 50 µg/mL [13]: 80%
- inhibition of growth at 50 µg/mL (HeLa [14]): 45%
- inhibition of growth at 50 µg/mL (T47D [15]): 30%

Structure (SMILES): CCOC(=O)Cc1nnc2n(c1=O)CCN2c1cccc(Cl)c1
- Activity (HeLa [16]): 10%
- Activity (T47D [17]): 20%
- inhibition of growth at 50 µg/mL [1]: 80%
- Activity [18]: 10%
- inhibition of growth at 50 µg/mL (T47D [2]): 55%
- inhibition of growth at 50 µg/mL (HeLa [3]): 10%
- Activity (HeLa [19]): 50%
- Activity (T47D [20]): 55%
- Activity [21]: 10%
- inhibition of growth at 50 µg/mL [4]: 90%
- Activity (HeLa [22]): 15%
- Activity [23]: 5%
- inhibition at 72 h, 50 ug/ml [5]: 10%
- inhibition at 48 h, 50 ug/ml [6]: 10%
- Activity (HeLa [24]): 15%
- inhibition of growth at 50 µg/mL [7]: 80%
- inhibition of growth at 50 µg/mL [8]: 55%
- inhibition of growth at 50 µg/mL (HeLa [9]): 50%
- Activity (T47D [25]): 10%
- inhibition of growth at 50 µg/mL [10]: 60%
- Activity (T47D [26]): 25%
- inhibition at 24 h, 50 ug/ml [11]: 10%
- Activity [27]: 5%
- Activity (HeLa [28]): 50%
- Activity (HeLa [29]): 10%
- inhibition of growth at 50 µg/mL (T47D [12]): 55%
- inhibition of growth at 50 µg/mL [13]: 85%
- Activity (T47D [30]): 20%
- Activity (T47D [31]): 50%
- inhibition of growth at 50 µg/mL (HeLa [14]): 50%
- Activity [32]: 10%
- inhibition of growth at 50 µg/mL (T47D [15]): 55%
- Activity [33]: 10%

Structure (SMILES): CCOC(=O)Cc1nnc2n(c1=O)CCN2c1ccc(Cl)c(Cl)c1
- Activity (HeLa [16]): 45%
- Activity (T47D [17]): 10%
- inhibition of growth at 50 µg/mL [1]: 65%
- Activity [18]: 50%
- inhibition of growth at 50 µg/mL (T47D [2]): 50%
- inhibition of growth at 50 µg/mL (HeLa [3]): 45%
- Activity (HeLa [19]): 45%
- Activity (T47D [20]): 50%
- Activity [21]: 70%
- inhibition of growth at 50 µg/mL [4]: 90%
- Activity (HeLa [22]): 10%
- Activity [23]: 10%
- inhibition at 72 h, 50 ug/ml [5]: 70%
- inhibition at 48 h, 50 ug/ml [6]: 60%
- Activity (HeLa [24]): 15%
- inhibition of growth at 50 µg/mL [7]: 80%
- inhibition of growth at 50 µg/mL [8]: 40%
- inhibition of growth at 50 µg/mL (HeLa [9]): 80%
- Activity (T47D [25]): 15%
- inhibition of growth at 50 µg/mL [10]: 65%
- Activity (T47D [26]): 25%
- inhibition at 24 h, 50 ug/ml [11]: 50%
- Activity [27]: 10%
- Activity (HeLa [28]): 80%
- Activity (HeLa [29]): 10%
- inhibition of growth at 50 µg/mL (T47D [12]): 40%
- inhibition of growth at 50 µg/mL [13]: 80%
- Activity (T47D [30]): 20%
- Activity (T47D [31]): 45%
- inhibition of growth at 50 µg/mL (HeLa [14]): 45%
- Activity [32]: 60%
- inhibition of growth at 50 µg/mL (T47D [15]): 25%
- Activity [33]: 12%

Structure (SMILES): O=c1c(-c2ccccc2)nnc2n1CCN2c1cccc(Cl)c1
- selectivity ratio [34]: 1.5

Structure (SMILES): O=c1c(-c2ccccc2)nnc2n1CCN2c1ccc(Cl)cc1
- LD50 [35]: > 2000 mg/kg
